# Marks after values point to notes of the source that are not given here. Numbered stars: 1 amine (or outer) side, 2 acyl side, 3 side chain; on linkers, the order of the positions; unused ones are H or OH. Bridge positions count the residues as written; N and C are the ends. Square brackets hold non-standard residues; d marks the D form. Peptide text beside a SMILES is read from it. * marks the point of attachment. X1 = COc1cc2cc(c1Cl)N(C)C(=O)C[C@H](OC(=O)[C@H](C)N(C)C(=O)CCC(C)(C)SSCCCC(=O)*)[C@]1(C)O[C@H]1[C@H](C)[C@@H]1C[C@@](O)(NC(=O)O1)[C@H](OC)/C=C/C=C(\C)C2; 5FAM = O=C1OC2(c3ccc(O)cc3Oc3cc(O)ccc32)c2ccc(C(=O)*)cc21; 1Nal = N[C@@H](Cc1cccc2ccccc12)C(=O)O; TBMB = c1c(C[*:1])cc(C[*:3])cc1C[*:2]; Tle = CC(C)(C)[C@H](N)C(=O)O; βAla = NCCC(=O)O; Sar = CNCC(=O)O
# Tests used:
# MT1-MMP hemopexin domain [1] = assay: FP competition, species cross-reactivity (dog); type: binding; settings: Table 13
# Excerpt: (§1) Here, a pre-formed complex of PEX with the fluorescent PEX-binding tracer is titrated with free, non-fluoresceinated bicyclic peptide. Since all 17-69-based peptides are expected to bind at the same site, the titrant will displace the fluorescent tracer from PEX. Dissociation of the complex can be measured quantitatively, and the Kd of the competitor (titrant) to the target protein determined. The advantage of the competition method is that the affinities of non-fluoresceinated bicyclic peptides can be determined accurately and rapidly.
# (§2) Subsequently, the non-fluorescent competitor bicyclic peptide (usually just the bicycle core sequence) is titrated, such that it displaces the fluorescent tracer from the target protein. The displacement of the tracer is measured and associated with a drop in fluorescence polarisation. The drop in fluorescence polarisation is proportional to the fraction of target protein bound with the non-fluorescent titrant, and thus is a measure of the affinity of titrant to target protein.
# (§3) The raw data is fit to the analytical solution of the cubic equation that describes the equilibria between fluorescent tracer, titrant, and binding protein. The fit requires the value of the affinity of fluorescent tracer to the target protein, which can be determined separately by direct binding FP experiments (see previous section). […]
# [2] = Plasma stability, quantitative LC-MS (Method #2); type: in vitro ADME, human; settings: quantitative LC-MS, incubation up to 24 hrs, 4 μM BDC; for half-life at 4 μM: human, read-out: t1/2 (hrs) (human plasma) (converted)
# Protocol: […] […] Prior to LC-MS analysis, samples were defrosted, and mixed with 3 volumes (here, 120 μL) of 1:1 acetonitrile/MeOH water. The milky suspensions were centrifuged for 30 min at 13000 rpm, and peptide-containing supernatants were quantitated for doubly/triply charged species and MS/MS fragments thereof using a Waters Xevo TQ-D instrument, while using a plasma extracted standard curve of the same peptides as a reference. The half-life of degradation in plasma was used to assess the comparative stability of the molecules.
# [3] = Plasma stability, quantitative LC-MS (Method #2); type: in vitro ADME, mouse; settings: mouse, quantitative LC-MS, incubation up to 24 hrs, 4 μM BDC, read-out: t1/2 (hrs) (mouse plasma) (converted)
# Protocol: To obtain plasma stability of bicyclic peptides quantitatively, peptide stock solutions (200 μM in DMSO) were mixed with plasma (human or mouse), such that final concentrations were 10 μM. 40 μL samples were taken periodically up to 8 hrs and frozen at −80° C. Prior to LC-MS analysis, samples were defrosted, and mixed with 3 volumes (here, 120 μL) of 1:1 acetonitrile/MeOH water. The milky suspensions were centrifuged for 30 min at 13000 rpm, and peptide-containing supernatants were quantitated for doubly/triply charged species and MS/MS fragments thereof using a Waters Xevo TQ-D instrument, while using a plasma extracted standard curve of the same peptides as a reference. The half-life of degradation in plasma was used to assess the comparative stability of the molecules.
# [4] = Plasma stability, quantitative LC-MS; type: in vitro ADME; settings: rat, incubation up to 24 hrs, 4 μM BDC, read-out: t1/2 (hrs) (rat plasma) (converted)
# Protocol: (§4) The four BDCs were assessed for several in vitro parameters such as retention of potency to the human MT1-MMP hemopexin domain, stability in ex vivo mouse, rat and human plasma, and stability to reducing agents such as dithiothreitol.
# MT1-MMP hemopexin domain [5] = molecular target: T1, MT1-MMP hemopexin domain (Mus musculus, UniProt P53690); assay: FP competition, species cross-reactivity (mouse); type: binding; settings: Table 13
# T1 construct: MT1-MMP hemopexin domain derived from other species
# Excerpt: as §1, §2, §3
# MMP-16 = MMP-16 (Homo sapiens, UniProt P51512); assay: FP selectivity against related metalloproteinases; type: binding; settings: Table 14
# Protocol: (§5) The N-terminally fluoresceinated derivative of 17-69-07-N241 (termed 17-69-07-N258, of the sequence: Fluorescein-(bAla)-Sar10-A-(17-69-07) D-Ala1 1Nal4 D-Ala5 tBuGly11) was tested against related human metalloproteinases.
# MMP-1 = molecular target: T2, MMP-1 (Homo sapiens, UniProt P03956); assay: FP selectivity against related metalloproteinases; type: binding; settings: Table 14
# T2 sequence (P03956 100-469): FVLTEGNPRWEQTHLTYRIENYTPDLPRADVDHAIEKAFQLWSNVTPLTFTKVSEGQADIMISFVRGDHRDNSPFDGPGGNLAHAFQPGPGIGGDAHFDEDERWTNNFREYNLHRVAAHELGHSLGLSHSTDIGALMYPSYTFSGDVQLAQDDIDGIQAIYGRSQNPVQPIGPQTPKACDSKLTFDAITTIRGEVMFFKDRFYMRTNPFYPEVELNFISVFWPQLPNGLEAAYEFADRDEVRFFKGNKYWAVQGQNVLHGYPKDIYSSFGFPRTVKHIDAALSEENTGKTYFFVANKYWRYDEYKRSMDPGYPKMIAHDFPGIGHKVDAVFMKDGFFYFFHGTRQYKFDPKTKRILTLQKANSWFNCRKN
# Protocol: as §5
# MMP-2 = molecular target: T3, MMP-2 (Homo sapiens, UniProt P08253); assay: FP selectivity against related metalloproteinases; type: binding; settings: Table 14
# T3 sequence (P08253 110-660): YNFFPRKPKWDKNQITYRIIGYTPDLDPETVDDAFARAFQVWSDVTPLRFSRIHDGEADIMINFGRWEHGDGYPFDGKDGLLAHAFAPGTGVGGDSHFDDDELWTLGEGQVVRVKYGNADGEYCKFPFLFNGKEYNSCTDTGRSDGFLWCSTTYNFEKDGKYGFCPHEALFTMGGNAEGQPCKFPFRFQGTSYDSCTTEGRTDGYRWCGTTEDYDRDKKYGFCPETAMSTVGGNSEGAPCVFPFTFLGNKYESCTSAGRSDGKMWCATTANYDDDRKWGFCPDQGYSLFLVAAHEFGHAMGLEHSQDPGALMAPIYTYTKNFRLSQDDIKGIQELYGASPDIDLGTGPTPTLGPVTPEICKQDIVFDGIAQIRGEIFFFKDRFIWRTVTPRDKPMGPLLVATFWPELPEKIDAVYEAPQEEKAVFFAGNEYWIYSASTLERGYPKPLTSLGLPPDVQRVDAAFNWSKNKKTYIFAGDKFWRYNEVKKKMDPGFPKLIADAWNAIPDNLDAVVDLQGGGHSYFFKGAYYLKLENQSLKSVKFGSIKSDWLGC
# Protocol: as §5
# MMP-15 = MMP-15 (Homo sapiens, UniProt P51511); assay: FP selectivity against related metalloproteinases; type: binding; settings: Table 14
# Protocol: as §5
# [6] = Kellogg et al (2011), cited from earlier work
# [7] = Stability to reducing agent dithiothreitol (DTT); type: physicochemical; settings: Bicycle Drug Conjugates, quantitative LC-MS
# Protocol: as §4
# [8] = test system: human lung squamous cell carcinoma line EBC-1; assay: Efficacy in EBC-1 xenograft mice; type: in vivo, mouse
# Protocol: In vivo efficacy of BT17BDC-17, BT17BDC-18, BT17BDC-19 and BT17BDC-20 All BDCs containing the stabilised bicycle core sequence were tested for their efficacies in in vivo mouse xenograft models, using the human lung squamous cell carcinoma line EBC-1.
# The area under the curve (AUC) of tumour volume over time and BDC was taken and plotted against the corresponding dose group (FIG. 13).
# Sequence of MMP-16 (P51512 120-607): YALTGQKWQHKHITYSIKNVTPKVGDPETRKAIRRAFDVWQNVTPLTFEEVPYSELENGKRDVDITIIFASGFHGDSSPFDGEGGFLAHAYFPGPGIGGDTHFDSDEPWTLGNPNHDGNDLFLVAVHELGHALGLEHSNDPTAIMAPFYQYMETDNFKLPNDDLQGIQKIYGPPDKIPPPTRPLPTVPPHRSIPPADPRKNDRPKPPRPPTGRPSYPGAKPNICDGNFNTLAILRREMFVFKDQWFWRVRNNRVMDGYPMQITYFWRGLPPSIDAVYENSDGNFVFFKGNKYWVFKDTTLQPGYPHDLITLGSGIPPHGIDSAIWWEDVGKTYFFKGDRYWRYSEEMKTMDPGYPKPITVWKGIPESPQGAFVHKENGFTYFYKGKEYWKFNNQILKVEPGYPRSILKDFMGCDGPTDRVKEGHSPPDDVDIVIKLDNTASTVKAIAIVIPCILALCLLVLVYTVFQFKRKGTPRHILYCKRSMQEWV
# Sequence of MMP-15 (P51511 132-669): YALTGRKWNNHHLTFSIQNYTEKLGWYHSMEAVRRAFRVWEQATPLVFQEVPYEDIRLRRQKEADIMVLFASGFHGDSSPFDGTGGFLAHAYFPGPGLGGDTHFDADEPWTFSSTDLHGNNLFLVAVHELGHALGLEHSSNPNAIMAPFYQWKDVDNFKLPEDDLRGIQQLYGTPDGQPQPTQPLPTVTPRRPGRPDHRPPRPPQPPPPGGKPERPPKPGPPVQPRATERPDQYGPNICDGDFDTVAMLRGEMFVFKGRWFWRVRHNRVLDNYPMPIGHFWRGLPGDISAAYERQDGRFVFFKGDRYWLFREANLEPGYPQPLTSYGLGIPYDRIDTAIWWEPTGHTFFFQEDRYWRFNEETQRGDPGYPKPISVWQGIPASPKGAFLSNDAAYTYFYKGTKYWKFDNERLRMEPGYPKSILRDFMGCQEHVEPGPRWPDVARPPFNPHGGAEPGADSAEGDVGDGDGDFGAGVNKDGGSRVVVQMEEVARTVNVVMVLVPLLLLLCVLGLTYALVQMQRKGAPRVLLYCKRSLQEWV
smiles,measurement,setting,value
"C[C@H](NC(=O)CN(C)C(=O)CN(C)C(=O)CN(C)C(=O)CN(C)C(=O)CN(C)C(=O)CN(C)C(=O)CN(C)C(=O)CN(C)C(=O)CN(C)C(=O)CN(C)C(=O)CCN)C(=O)N[C@H]1CSCc2cc3cc(c2)CSC[C@H](NC(=O)[C@@H](C)NC(=O)[C@H](Cc2cccc4ccccc24)NC(=O)[C@H](CCC(=O)O)NC(=O)[C@H](CC(N)=O)NC(=O)[C@@H](C)NC1=O)C(=O)N[C@@H](CCC(=O)O)C(=O)N[C@@H](CC(=O)O)C(=O)N[C@@H](Cc1ccccc1)C(=O)N[C@@H](Cc1ccc(O)cc1)C(=O)N[C@@H](CC(=O)O)C(=O)N[C@@H](C(C)(C)C)C(=O)N[C@H](C(N)=O)CSC3 [17-69-07-N241, bAla-Sar10-A-(17-69-07) D-Ala1 1Nal4 D-Ala5 tBuGly11] (H-[βAla][Sar][Sar][Sar][Sar][Sar][Sar][Sar][Sar][Sar][Sar]AC[dA]NE[1Nal][dA]CEDFYD[Tle]C-NH2; linker 13-19-26 via TBMB; C-terminus assumed)",Kd,MT1-MMP hemopexin domain [1],1.4 nM
same,half-life at 4 μM,[2]; human plasma,> 36 h
same,half-life at 4 μM,[3]; mouse plasma,> 36 h
same,half-life at 4 μM,[4]; rat plasma (ex vivo),> 36 h
same,Kd,MT1-MMP hemopexin domain [5],0.63 nM
"C[C@H](NC(=O)CN(C)C(=O)CN(C)C(=O)CN(C)C(=O)CN(C)C(=O)CN(C)C(=O)CN(C)C(=O)CN(C)C(=O)CN(C)C(=O)CN(C)C(=O)CN(C)C(=O)CCNC(=O)c1ccc2c(c1)C(=O)OC21c2ccc(O)cc2Oc2cc(O)ccc21)C(=O)N[C@H]1CSCc2cc3cc(c2)CSC[C@H](NC(=O)[C@@H](C)NC(=O)[C@H](Cc2cccc4ccccc24)NC(=O)[C@H](CCC(=O)O)NC(=O)[C@H](CC(N)=O)NC(=O)[C@@H](C)NC1=O)C(=O)N[C@@H](CCC(=O)O)C(=O)N[C@@H](CC(=O)O)C(=O)N[C@@H](Cc1ccccc1)C(=O)N[C@@H](Cc1ccc(O)cc1)C(=O)N[C@@H](CC(=O)O)C(=O)N[C@@H](C(C)(C)C)C(=O)N[C@H](C(N)=O)CSC3 [17-69-07-N258, Fluorescein-(bAla)-Sar10-A-(17-69-07) D-Ala1 1Nal4 D-Ala5 tBuGly11] ({5FAM-βAla}-[Sar][Sar][Sar][Sar][Sar][Sar][Sar][Sar][Sar][Sar]AC[dA]NE[1Nal][dA]CEDFYD[Tle]C-NH2; linker 12-18-25 via TBMB)",Kd,MMP-16,> 1000 nM
same,Kd,MMP-1,> 1000 nM
same,Kd,MMP-2,> 1000 nM
same,Kd,MMP-15,> 1000 nM
COc1cc2cc(c1Cl)N(C)C(=O)C[C@H](OC(=O)[C@H](C)N(C)C(=O)CCC(C)(C)SSCCCC(=O)NCCC(=O)N(C)CC(=O)N(C)CC(=O)N(C)CC(=O)N(C)CC(=O)N(C)CC(=O)N(C)CC(=O)N(C)CC(=O)N(C)CC(=O)N(C)CC(=O)N(C)CC(=O)N[C@@H](C)C(=O)N[C@H]1CSCc3cc4cc(c3)CSC[C@H](NC(=O)[C@@H](C)NC(=O)[C@H](Cc3cccc5ccccc35)NC(=O)[C@H](CCC(=O)O)NC(=O)[C@H](CC(N)=O)NC(=O)[C@@H](C)NC1=O)C(=O)N[C@@H](CCC(=O)O)C(=O)N[C@@H](CC(=O)O)C(=O)N[C@@H](Cc1ccccc1)C(=O)N[C@@H](Cc1ccc(O)cc1)C(=O)N[C@@H](CC(=O)O)C(=O)N[C@@H](C(C)(C)C)C(=O)N[C@H](C(N)=O)CSC4)[C@]1(C)O[C@H]1[C@H](C)[C@@H]1C[C@@](O)(NC(=O)O1)[C@H](OC)/C=C/C=C(\C)C2 [BT17BDC-19] ({X1-βAla}-[Sar][Sar][Sar][Sar][Sar][Sar][Sar][Sar][Sar][Sar]AC[dA]NE[1Nal][dA]CEDFYD[Tle]C-NH2; linker 12-18-25 via TBMB),fold reduction in sensitivity to a reducing agent such as dithiothreitol,"[6]; in the antibody drug conjugate context, compared to the non-hindered disulphide",14 fold
same,Relative Stability to DTT (ADC),[6]; values relate to antibody drug conjugates containing the same disulphide linker,14
same,half-life at 4 μM,[2]; plasma,> 14 h
same,t1/2 (hrs) (human plasma),[2],23.5 ± 4.1 h
same,half-life at 4 μM,[3]; plasma,> 36 h
same,half-life at 4 μM,[4]; plasma,> 36 h
same,Relative Stability to DTT (BDC),[7],30
same,efficacy in EBC-1 xenograft,[8]; EBC-1 xenograft,efficacious
same,tolerability / body weight,[8]; EBC-1 xenograft,well tolerated at efficacious doses
same,"ED50, effective dose to achieve 50% tumour AUC reduction","[8]; mouse bearing EBC-1 tumours, ± 95% confidence limit",3.1 ± 1.6^b mg/kg
